Experimental data: patent US10881599B2, “Whitening composition including novel kaempferol-based compound derived from post-fermented tea” (AMOREPACIFIC CORPORATION, priority 2017, dated 2021)

Columns and labels:
Mel-Ab cell line = test: Melanin production-inhibitory effect (Dooley's method); assay type: cell-based, C57BL/6; conditions: Mel-Ab cells, melanin after 5 days, absorbance at 400 nm
mushroom tyrosinase = test: Tyrosinase activity-inhibitory effect; assay type: biochemical; conditions: L-tyrosine, 20 minutes at 37° C., absorbance at 490 nm
Protocol: The tyrosinase activity-inhibitory effect of new material 33 was evaluated. Specifically, tyrosinase and tyrosine derived from mushrooms were obtained from Sigma Chemical. […] Tyrosinase activity was assessed by measuring the absorbance at 490 nm using a microplate reader (Bio-Rad 3550, Richmond, Calif., U.S.A.) after an enzyme reaction for 20 minutes at 37° C.

skin = test: Human repeated insult patch test (HRIPT), skin accumulation stimulation; assay type: in vivo; set-up: key to Skin reactivity (ICDRG criteria): −: negative (no response); ±: doubtful or slight erythema, etc.; +: weak reaction (which is accompanied with no phlyctenule), erythema, papule; ++: severe reaction (which is accompanied with phlyctenule), erythema, papule, phlyctenule; +++: strong reaction, bullae reaction; conditions: for Number of subjects with ±, +, or ++ reactivity, 1st: 1st patch; for Number of subjects with ±, +, or ++ reactivity, 2nd: 2nd patch; for Number of subjects with ±, +, or ++ reactivity, 3rd: 3rd patch; for Number of subjects with ±, +, or ++ reactivity, 4th: 4th patch; for Number of subjects with ±, +, or ++ reactivity, 5th: 5th patch; for Number of subjects with ±, +, or ++ reactivity, 6th: 6th patch; for Number of subjects with ±, +, or ++ reactivity, 7th: 7th patch; for Number of subjects with ±, +, or ++ reactivity, 8th: 8th patch; for Average reactivity: 9 patches, 15 subjects, less than 3 is considered stable; for Number of subjects with ±, +, or ++ reactivity, 9th: 9th patch
Protocol: Human repeated insult patch tests (HRIPT) were performed to confirm the skin accumulation stimulation of the kaempferol3-O-[2-O″-(E)-p-coumaroyl][beta-D-glucopyranosyl-(1→3)-O-alpha-L-rhamnopyranosyl-(1→6)-O-beta-D-glucopyranoside] and to calculate the concentration range available for the skin.
Specifically, 15 healthy adult subjects were randomly selected, and the test composition (the skin composition including an emulsifier, a stabilizer, purified water, etc. in addition to the compound) containing 0.5 wt %, 1 wt %, and 3 wt % of the compound was added dropwise by 20 μl per chamber (IQ chamber, Epitest Ltd, Finland). After 24 hours from patching the upper right part of the back of a subject, it was replaced with the new patch. A total of 9 patches were conducted, three times a week for total 3 weeks, in such manner, the skin reactions before and after patch were examined every time, and the skin reactions until 48 hours after removing the final patch were observed, and the average reactivity was observed.
The skin response was determined according to the criteria of the International Contact Dermatitis Research Group (ICDRG). ‘New material 33’ in the table above is kaempferol3-O-[2-O″-(E)-p-coumaroyl][beta-D-glucopyranosyl-(1→3)-O-alpha-L-rhamnopyranosyl-(1→6)-O-beta-D-glucopyranoside].

C[C@@H]1O[C@@H](OC[C@H]2O[C@@H](Oc3c(-c4ccc(O)cc4)oc4cc(O)cc(O)c4c3=O)[C@H](OC(=O)/C=C/c3ccc(O)cc3)[C@@H](O)[C@@H]2O)[C@H](O)[C@H](O[C@@H]2O[C@H](CO)[C@@H](O)[C@H](O)[C@H]2O)[C@H]1O [new material 33, kaempferol3-O-[2-O″-(E)-p-coumaroyl][beta-D-glucopyranosyl-(1→3)-O-alpha-L-rhamnopyranosyl-(1→6)-O-beta-D-glucopyranoside]]
Melanin production-inhibitory effect IC50 (Mel-Ab cell line): 15.7 ppm
Tyrosinase activity-inhibitory effect IC50 (mushroom tyrosinase): 11 ppm
Skin reactivity (ICDRG criteria) (skin; 0.5 wt %, 1 wt % and 3 wt %, all subjects, all patches): −
Number of subjects with ±, +, or ++ reactivity, 1st (skin; 0.5 wt %, line 1 of 3 (±)): 0 person
Number of subjects with ±, +, or ++ reactivity, 1st (skin; 0.5 wt %, line 2 of 3 (+)): 0 person
Number of subjects with ±, +, or ++ reactivity, 1st (skin; 0.5 wt %, line 3 of 3 (++)): 0 person
Number of subjects with ±, +, or ++ reactivity, 2nd (skin; 0.5 wt %, line 1 of 3 (±)): 0 person
Number of subjects with ±, +, or ++ reactivity, 2nd (skin; 0.5 wt %, line 2 of 3 (+)): 0 person
Number of subjects with ±, +, or ++ reactivity, 2nd (skin; 0.5 wt %, line 3 of 3 (++)): 0 person
Number of subjects with ±, +, or ++ reactivity, 3rd (skin; 0.5 wt %, line 1 of 3 (±)): 0 person
Number of subjects with ±, +, or ++ reactivity, 3rd (skin; 0.5 wt %, line 2 of 3 (+)): 0 person
Number of subjects with ±, +, or ++ reactivity, 3rd (skin; 0.5 wt %, line 3 of 3 (++)): 0 person
Number of subjects with ±, +, or ++ reactivity, 4th (skin; 0.5 wt %, line 1 of 3 (±)): 0 person
Number of subjects with ±, +, or ++ reactivity, 4th (skin; 0.5 wt %, line 2 of 3 (+)): 0 person
Number of subjects with ±, +, or ++ reactivity, 4th (skin; 0.5 wt %, line 3 of 3 (++)): 0 person
Number of subjects with ±, +, or ++ reactivity, 5th (skin; 0.5 wt %, line 1 of 3 (±)): 0 person
Number of subjects with ±, +, or ++ reactivity, 5th (skin; 0.5 wt %, line 2 of 3 (+)): 0 person
Number of subjects with ±, +, or ++ reactivity, 5th (skin; 0.5 wt %, line 3 of 3 (++)): 0 person
Number of subjects with ±, +, or ++ reactivity, 6th (skin; 0.5 wt %, line 1 of 3 (±)): 0 person
Number of subjects with ±, +, or ++ reactivity, 6th (skin; 0.5 wt %, line 2 of 3 (+)): 0 person
Number of subjects with ±, +, or ++ reactivity, 6th (skin; 0.5 wt %, line 3 of 3 (++)): 0 person
Number of subjects with ±, +, or ++ reactivity, 7th (skin; 0.5 wt %, line 1 of 3 (±)): 0 person
Number of subjects with ±, +, or ++ reactivity, 7th (skin; 0.5 wt %, line 2 of 3 (+)): 0 person
Number of subjects with ±, +, or ++ reactivity, 7th (skin; 0.5 wt %, line 3 of 3 (++)): 0 person
Number of subjects with ±, +, or ++ reactivity, 8th (skin; 0.5 wt %, line 1 of 3 (±)): 0 person
Number of subjects with ±, +, or ++ reactivity, 8th (skin; 0.5 wt %, line 2 of 3 (+)): 0 person
Number of subjects with ±, +, or ++ reactivity, 8th (skin; 0.5 wt %, line 3 of 3 (++)): 0 person
Average reactivity (skin; 0.5 wt %): 0
Number of subjects with ±, +, or ++ reactivity, 9th (skin; 0.5 wt %, line 1 of 3 (±)): 0 person
Number of subjects with ±, +, or ++ reactivity, 9th (skin; 0.5 wt %, line 2 of 3 (+)): 0 person
Number of subjects with ±, +, or ++ reactivity, 9th (skin; 0.5 wt %, line 3 of 3 (++)): 0 person
Number of subjects with ±, +, or ++ reactivity, 1st (skin; 1 wt %, line 1 of 3 (±)): 0 person
Number of subjects with ±, +, or ++ reactivity, 1st (skin; 1 wt %, line 2 of 3 (+)): 0 person
Number of subjects with ±, +, or ++ reactivity, 1st (skin; 1 wt %, line 3 of 3 (++)): 0 person
Number of subjects with ±, +, or ++ reactivity, 2nd (skin; 1 wt %, line 1 of 3 (±)): 0 person
Number of subjects with ±, +, or ++ reactivity, 2nd (skin; 1 wt %, line 2 of 3 (+)): 0 person
Number of subjects with ±, +, or ++ reactivity, 2nd (skin; 1 wt %, line 3 of 3 (++)): 0 person
Number of subjects with ±, +, or ++ reactivity, 3rd (skin; 1 wt %, line 1 of 3 (±)): 0 person
Number of subjects with ±, +, or ++ reactivity, 3rd (skin; 1 wt %, line 2 of 3 (+)): 0 person
Number of subjects with ±, +, or ++ reactivity, 3rd (skin; 1 wt %, line 3 of 3 (++)): 0 person
Number of subjects with ±, +, or ++ reactivity, 4th (skin; 1 wt %, line 1 of 3 (±)): 0 person
Number of subjects with ±, +, or ++ reactivity, 4th (skin; 1 wt %, line 2 of 3 (+)): 0 person
Number of subjects with ±, +, or ++ reactivity, 4th (skin; 1 wt %, line 3 of 3 (++)): 0 person
Number of subjects with ±, +, or ++ reactivity, 5th (skin; 1 wt %, line 1 of 3 (±)): 0 person
Number of subjects with ±, +, or ++ reactivity, 5th (skin; 1 wt %, line 2 of 3 (+)): 0 person
Number of subjects with ±, +, or ++ reactivity, 5th (skin; 1 wt %, line 3 of 3 (++)): 0 person
Number of subjects with ±, +, or ++ reactivity, 6th (skin; 1 wt %, line 1 of 3 (±)): 0 person
Number of subjects with ±, +, or ++ reactivity, 6th (skin; 1 wt %, line 2 of 3 (+)): 0 person
Number of subjects with ±, +, or ++ reactivity, 6th (skin; 1 wt %, line 3 of 3 (++)): 0 person
Number of subjects with ±, +, or ++ reactivity, 7th (skin; 1 wt %, line 1 of 3 (±)): 0 person
Number of subjects with ±, +, or ++ reactivity, 7th (skin; 1 wt %, line 2 of 3 (+)): 0 person
Number of subjects with ±, +, or ++ reactivity, 7th (skin; 1 wt %, line 3 of 3 (++)): 0 person
Number of subjects with ±, +, or ++ reactivity, 8th (skin; 1 wt %, line 1 of 3 (±)): 0 person
Number of subjects with ±, +, or ++ reactivity, 8th (skin; 1 wt %, line 2 of 3 (+)): 0 person
Number of subjects with ±, +, or ++ reactivity, 8th (skin; 1 wt %, line 3 of 3 (++)): 0 person
Average reactivity (skin; 1 wt %): 0
Number of subjects with ±, +, or ++ reactivity, 9th (skin; 1 wt %, line 1 of 3 (±)): 0 person
Number of subjects with ±, +, or ++ reactivity, 9th (skin; 1 wt %, line 2 of 3 (+)): 0 person
Number of subjects with ±, +, or ++ reactivity, 9th (skin; 1 wt %, line 3 of 3 (++)): 0 person
Number of subjects with ±, +, or ++ reactivity, 1st (skin; 3 wt %, line 1 of 3 (±)): 0 person
Number of subjects with ±, +, or ++ reactivity, 1st (skin; 3 wt %, line 2 of 3 (+)): 0 person
Number of subjects with ±, +, or ++ reactivity, 1st (skin; 3 wt %, line 3 of 3 (++)): 0 person
Number of subjects with ±, +, or ++ reactivity, 2nd (skin; 3 wt %, line 1 of 3 (±)): 0 person
Number of subjects with ±, +, or ++ reactivity, 2nd (skin; 3 wt %, line 2 of 3 (+)): 0 person
Number of subjects with ±, +, or ++ reactivity, 2nd (skin; 3 wt %, line 3 of 3 (++)): 0 person
Number of subjects with ±, +, or ++ reactivity, 3rd (skin; 3 wt %, line 1 of 3 (±)): 0 person
Number of subjects with ±, +, or ++ reactivity, 3rd (skin; 3 wt %, line 2 of 3 (+)): 0 person
Number of subjects with ±, +, or ++ reactivity, 3rd (skin; 3 wt %, line 3 of 3 (++)): 0 person
Number of subjects with ±, +, or ++ reactivity, 4th (skin; 3 wt %, line 1 of 3 (±)): 0 person
Number of subjects with ±, +, or ++ reactivity, 4th (skin; 3 wt %, line 2 of 3 (+)): 0 person
Number of subjects with ±, +, or ++ reactivity, 4th (skin; 3 wt %, line 3 of 3 (++)): 0 person
Number of subjects with ±, +, or ++ reactivity, 5th (skin; 3 wt %, line 1 of 3 (±)): 0 person
Number of subjects with ±, +, or ++ reactivity, 5th (skin; 3 wt %, line 2 of 3 (+)): 0 person
Number of subjects with ±, +, or ++ reactivity, 5th (skin; 3 wt %, line 3 of 3 (++)): 0 person
Number of subjects with ±, +, or ++ reactivity, 6th (skin; 3 wt %, line 1 of 3 (±)): 0 person
Number of subjects with ±, +, or ++ reactivity, 6th (skin; 3 wt %, line 2 of 3 (+)): 0 person
Number of subjects with ±, +, or ++ reactivity, 6th (skin; 3 wt %, line 3 of 3 (++)): 0 person
Number of subjects with ±, +, or ++ reactivity, 7th (skin; 3 wt %, line 1 of 3 (±)): 0 person
Number of subjects with ±, +, or ++ reactivity, 7th (skin; 3 wt %, line 2 of 3 (+)): 0 person
Number of subjects with ±, +, or ++ reactivity, 7th (skin; 3 wt %, line 3 of 3 (++)): 0 person
Number of subjects with ±, +, or ++ reactivity, 8th (skin; 3 wt %, line 1 of 3 (±)): 0 person
Number of subjects with ±, +, or ++ reactivity, 8th (skin; 3 wt %, line 2 of 3 (+)): 0 person
Number of subjects with ±, +, or ++ reactivity, 8th (skin; 3 wt %, line 3 of 3 (++)): 0 person
Average reactivity (skin; 3 wt %): 0
Number of subjects with ±, +, or ++ reactivity, 9th (skin; 3 wt %, line 1 of 3 (±)): 0 person
Number of subjects with ±, +, or ++ reactivity, 9th (skin; 3 wt %, line 2 of 3 (+)): 0 person
Number of subjects with ±, +, or ++ reactivity, 9th (skin; 3 wt %, line 3 of 3 (++)): 0 person

O=c1cc(CO)occ1O [Kojic acid, reference compound]
Melanin production-inhibitory effect IC50 (Mel-Ab cell line): 39.36 ppm

OC[C@H]1O[C@@H](Oc2ccc(O)cc2)[C@H](O)[C@@H](O)[C@@H]1O [Arbutin, reference compound]
Tyrosinase activity-inhibitory effect IC50 (mushroom tyrosinase): 149 ppm
